From the pKa sets of Baltruschat and Czodrowski (2020)

Settings: acidic group

`CCC[Se](=O)O` and `CC/C(C)=C\C(=O)O` are within 0.2 log units of each other in pKa: 5.25 for the first, 5.15 for the second.

Going from `OC(c1ccccc1)c1ccccn1` (configuration not stated) to `N#CC(c1ccccc1)c1ccc([N+](=O)[O-])cc1` (configuration not stated), the pKa falls from 12.8 to 10.9.

Compared with `CCN(CC)C(=S)NC(=O)c1ccc(Cl)cc1`, `Cc1ccc(C(=O)N(C)O)cc1` is higher in pKa: 8 for the first, 8.5 for the second.

Going from `CCOCCn1c(CN2CC[NH+](CCCCn3cc(C(=O)O)cn3)CC2)[nH+]c2ccccc21` to `Nc1c2ccccc2[nH+]c2ccc(O)cc12`, the pKa rises from 3.8 to 7.71.

Going from `Oc1ccccc1/C=N/c1ncc2nc[nH]c2n1` to `c1ccc(CCNc2ncnc3nc[nH]c23)cc1`, the pKa rises from 9.19 to 10.1.

Compared with `Cc1nn(-c2ccccc2)c(O)c1C1CCCCC1`, `Cc1nccc2c1[nH]c1ccccc12` is higher in pKa: 11.6 for the first, 14.5 for the second.

First: CCOC(=O)[C@H]1CC(=O)N[C@@H]1C(=O)O
Second: CS(=O)(=O)Nc1ccc(CC([NH3+])C(=O)O)cc1 (configuration not stated)
The pKa of the first is higher: 3.5 for the first, 3.15 for the second.

Compared with `Oc1c(Cl)ccc(Cl)c1Cl`, `Oc1ccc(Cl)c(Cl)c1` is higher in pKa: 6.12 for the first, 8.58 for the second.

Compared with `O=C1CCc2ccc(Cl)cc2C1`, `O=Cc1ccc(O)cc1Cl` is lower in pKa: 12.3 for the first, 6.6 for the second.

Compared with `Sc1nnco1`, `N#Cc1ccc(-c2nnn[nH]2)cc1` is lower in pKa: 3.85 for the first, 3.53 for the second.

Going from `Cc1ccccc1NCCS` to `CSc1ccccc1C(=O)O`, the pKa falls from 9.6 to 3.89.

`Nc1cc2ccccc2cc1O` and `Nc1ccc(O)cc1O` are within 0.2 log units of each other in pKa: 9.35 for the first, 9.3 for the second.

First: O=C(O)[C@@H]1O[C@H](Oc2ccc(-c3ccccc3)cc2)[C@@H](O)[C@H](O)[C@H]1O
Second: O=C(O[C@H]1O[C@@H](C(=O)O)[C@H](O)[C@@H](O)[C@@H]1O)c1ccccc1
The pKa of the first is higher: 3.1 for the first, 2.85 for the second.

Compared with `COc1cccc(CCC(=O)O)c1`, `OB(O)CCc1ccccc1` is higher in pKa: 4.65 for the first, 10 for the second.

`O=C(O)c1cc([N+](=O)[O-])cs1` and `O=C(O)c1cc([N+](=O)[O-])ccc1C(=O)c1ccccc1` are within 0.2 log units of each other in pKa: 2.83 for the first, 2.86 for the second.

First: NC(=N\O)/C(N)=N/O
Second: CCN(CC)CC(=N\[O-])/C(C)=N/O
The pKa of the first is lower: 11.3 for the first, 11.9 for the second.

First: O=S(=O)([O-])c1ccc(O)c2cn[nH]c12
Second: Nc1ccc(S(=O)(=O)Nc2ncc[nH]2)cc1
The pKa of the first is lower: 7.6 for the first, 9.72 for the second.

Compared with `COc1ccc2[nH]c3c(c2c1)CCN=C3C`, `COc1cc2c(cc1OC)[C@@H]1Cc3ccc(OC)c(O)c3[C@H](C2)N1C` is lower in pKa: 14.5 for the first, 9.85 for the second.

Compared with `Clc1c(Cl)c(Cl)c2[nH]nnc2c1Cl`, `CC1=NS(=O)(=O)c2ncccc2N1` is higher in pKa: 4.52 for the first, 7.58 for the second.

Compared with `CC(=O)Nc1ccc(S)cc1`, `COC(=O)/C(=N/O)c1ccccc1` is higher in pKa: 6.08 for the first, 8.87 for the second.

First: N#CC(C#N)=NNc1ccc(OC(F)(F)F)cc1
Second: N#Cc1cccc(S(N)(=O)=O)c1
The pKa of the first is lower: 6 for the first, 8.84 for the second.

`C/C=C(\Cl)C(=O)O` and `CC(C)=C(C#N)C(=O)O` are within 0.2 log units of each other in pKa: 3.22 for the first, 3.04 for the second.

Going from `CCCc1c(O)n2c3cc(C)ccc3nc(N(C)C)n2c1=O` to `Cc1ccc(C(=O)O)c(I)c1`, the pKa falls from 6.55 to 3.2.

Compared with `Cc1ccc(S(=O)(=O)NC(=O)OC(C)(C)C)cc1`, `O=c1cc(-c2ccccc2)oc2cc(O)ccc12` is higher in pKa: 5.05 for the first, 7.39 for the second.

Going from `Oc1ccnc([Se-])[nH+]1` to `O=C(O)c1cc(O)c(O)c(C(=O)O)[o+]1`, the pKa falls from 7.18 to 0.6.

Compared with `CCCC(C)C1(CC)C(=O)NC(=O)NC1=O` (configuration not stated), `C=CCC1(C2=CCCCC2)C(=O)NC(=S)NC1=O` is lower in pKa: 8.08 for the first, 7.09 for the second.

Compared with `N#CC(C#N)=C(C#N)NC1CCCCC1`, `COCC1=C(C(=O)O)CC1` is lower in pKa: 6.01 for the first, 4.31 for the second.

`[NH3+]C/C=C/C(=O)O` and `O=C1OC2C3CC4C2C4(C(=O)O)C13Br` (configuration not stated) are within 0.2 log units of each other in pKa: 3.55 for the first, 3.5 for the second.

With `C#CC#CC#CCC(O)CCC(=O)O` (configuration not stated) the pKa was 4.75.

Same assay, conditions: basic group

First: OC(c1ccccc1)c1ccccn1 (configuration not stated)
Second: c1ccc(-c2[nH]c3ccccc3[nH+]2)nc1
The pKa of the first is higher: 4.44 for the first, -1.59 for the second.

Going from `COc1ccc(C2NCCS2)cc1` (configuration not stated) to `COc1ccc(CN2CC(O[Si](C)(C)C)C2)cc1`, the pKa rises from 5.45 to 8.17.

First: C=CC(C)(C)N(C)C(C)(C)C
Second: CN(C)C(C)(C)C=O
The pKa of the first is higher: 11.3 for the first, 8.4 for the second.

First: [O-]c1cnccn1
Second: Cn1ncc2cncnc21
The pKa of the first is higher: 8.23 for the first, 2.5 for the second.

Compared with `C1CN2C(=N1)N1CCN=C1N1CCN=C21`, `C1CCC(C2=NCCC2)CC1` is higher in pKa: 5.8 for the first, 6.05 for the second.

First: CC(O)CN(CC(C)O)C(C)(C)C (configuration not stated)
Second: CC(O)CN(CCCN1CCOCC1)CC(C)O (configuration not stated)
The pKa of the first is higher: 9.36 for the first, 8.4 for the second.

Compared with `Oc1ccccc1/C=N/c1ncc2nc[nH]c2n1`, `c1ccc(CCNc2ncnc3nc[nH]c23)cc1` is higher in pKa: 3.38 for the first, 4.2 for the second.

Compared with `COc1ccc2c(c1)NCCN2`, `COc1ccc2[nH]c3c(c2c1)CCN=C3C` is higher in pKa: 5.26 for the first, 9.21 for the second.

Compared with `Cc1cscn1`, `Cc1cc(=O)n(C)cn1` is lower in pKa: 3.14 for the first, 2.1 for the second.

Compared with `CN(C)c1nc2c(o1)CCCC2`, `Nc1cc2c(cc1Br)CCCC2` is lower in pKa: 6.16 for the first, 3.05 for the second.

Compared with `CCOc1ccc2[nH]c(C)nc2c1`, `CCOC(=O)c1cnc2ccccc2c1OCC` is lower in pKa: 6.22 for the first, 3.88 for the second.

Compared with `Cc1cnnc(C)c1`, `Cc1cc(-c2cc(C)n(C)[nH+]2)nn1C` is lower in pKa: 4.11 for the first, -0.6 for the second.

First: C[NH+](C)CCCN
Second: C[NH+](C)CCCN=C(c1ccccc1)c1ccccc1
The pKa of the first is higher: 6.74 for the first, 5.2 for the second.

Going from `c1cc([C@@H]2CCCN2)nc([C@@H]2CCCN2)c1` to `c1cc(C2CCCN2)nc(C2CCC[NH2+]2)c1` (configuration not stated), the pKa falls from 10.1 to 9.46.

First: CC(N)CCc1ccccc1 (configuration not stated)
Second: CCOC(=O)C[C@H](N)c1ccccc1
The pKa of the first is higher: 9.78 for the first, 8.32 for the second.

Going from `CCCNCC(=O)Nc1c(C)cccc1C` to `Cc1cccc(C)c1NC(=O)CN1CCCCC1`, the pKa falls from 8.01 to 7.6.

Going from `CC(=O)Nc1c(C)n(C)n(-c2ccccc2)c1=O` to `Cc1ccn(C)c2nc3ccccc3c1-2`, the pKa rises from 0.18 to 8.35.

Going from `c1ccc2c(c1)CCNC2` to `CCNc1ccccc1C`, the pKa falls from 9.48 to 4.92.

Compared with `CCCCC/C(N)=N/N(C)C`, `CCC(=O)OCCN(C)C` is lower in pKa: 10.4 for the first, 8.29 for the second.

Going from `CCCCOC(=O)c1ccc(N)cc1` to `NCCC(=O)c1ccccc1`, the pKa rises from 2.47 to 8.3.

First: NC(=N\O)/C(N)=N/O
Second: CCN(CC)CC(=N\[O-])/C(C)=N/O
The pKa of the first is lower: 2.97 for the first, 11.9 for the second.

Compared with `CCN(CC)Cc1ccccc1OC`, `CC(C)n1cnc2ccccc21` is lower in pKa: 10.2 for the first, 5.74 for the second.

Compared with `COC(=O)C1CN2CCC1CC2` (configuration not stated), `COC1CC2CCN1CC2` (configuration not stated) is lower in pKa: 9.4 for the first, 8.87 for the second.

Compared with `CCN(CC)CC(=O)NC1CCCCC1`, `CCCCN1CCCCC1` is higher in pKa: 8.21 for the first, 10.5 for the second.

Compared with `N#CC(C#N)=NNc1ccc(OC(F)(F)F)cc1`, `CNCC(O)c1ccccc1` (configuration not stated) is higher in pKa: -0.78 for the first, 9.31 for the second.

`Cc1cc2cccnc2c2ncccc12` and `CCCc1ccnc2c1ccc1cccnc12` are within 0.2 log units of each other in pKa: 5.26 for the first, 5.45 for the second.

Compared with `Cc1ccc2ccc3cccnc3c2n1`, `Cc1nccc2c1[nH]c1ccccc12` is higher in pKa: 5.36 for the first, 6.55 for the second.

Going from `NC(=S)C1([NH3+])CCCCC1` to `N[C@@H]1CCCC[C@@H]1[NH3+]`, the pKa rises from -8.08 to 6.35.

Compared with `CCNCC(=O)N(CC)CC`, `CCc1ccc(OC)c(C(=O)NC[C@H]2CCCN2CC)c1[O-]` is higher in pKa: 8.78 for the first, 9.54 for the second.

First: CON(C)C
Second: CN(C)CCc1nnn[n-]1
The pKa of the first is lower: 3.65 for the first, 9.39 for the second.

First: C=CCN(CC=C)CCCN(CC=C)CC=C
Second: CCCCCCCCCCN(CC(C)O)CC(O)CC (configuration not stated)
The pKa of the first is higher: 8.8 for the first, 6.7 for the second.

Going from `O=C(Cc1ccccc1Nc1c(Cl)cccc1Cl)OCCN1CCOCC1` to `Cc1ccccc1C(=NCCN(C)C)c1ccccc1C`, the pKa rises from 7.52 to 8.5.

Going from `CCCNC(=O)[C@H](Cc1c[nH]c[nH+]1)NC(=O)c1cccc(CNCC[NH3+])n1` to `O=C([O-])C(CO)NCc1cc([N+](=O)[O-])ccc1[O-]` (configuration not stated), the pKa rises from 5.9 to 9.75.

First: Nc1ncc2[nH]c[nH+]c2n1
Second: Nc1ccc(O)cc1O
The pKa of the first is lower: -0.28 for the first, 5.7 for the second.

Going from `C=CCN1CC[C@]23c4c5ccc(O)c4O[C@H]2[C@@H](O)C=C[C@H]3[C@H]1C5` to `CN1CC[C@]23c4c5ccc(O)c4O[C@H]2[C@@H](O)CC[C@H]3[C@H]1C5`, the pKa rises from 7.83 to 8.94.

Going from `CCCn1ccnc1CO` to `CN(C)c1ncnc2c1ncn2[C@H]1O[C@@H](CO)[C@H](O)[C@@H]1O`, the pKa falls from 7.04 to 3.65.

`CN(C)Cc1cc(C[NH+](C)C)cc(O)c1O` and `O=C([O-])c1c2cccc1COCCOCc1ncc([nH]1)COCCOC2` are within 0.2 log units of each other in pKa: 7.22 for the first, 7.05 for the second.

Compound `CCCCCCCCCCCCCN` has a pKa of 10.6.
